Experimental data: US20140322296A1, “PIPERAQUINE MICROCAPSULES AND COMPOSITIONS CONTAINING THEM” (Aptalis Pharma S.r.l., priority 2013, published 2014)

Assay: Compatibility of piperaquine with the coacervation process (heating/cooling thermal cycles)
Format: physicochemical
Protocol: 1. Methods for Characterization • Particle size distribution (PSD): an amount of microcapsules in the range of 25-50 g of microcapsules is poured into a 100 mL HDPE bottle, 0.2% (w/w) of Syloid 244 (colloidal silicon dioxide, WR Grace, Columbia, Md.) and manually blended for 2 minutes; the mixture of microcapsules and Syloid 244 is sieved then with a digital Octagon apparatus for 10 minutes at amplitude 7. • Bulk density and tapped density of powders is measured according to Method USP 34 <616>. • Dissolution profile: Ph Eur [2.9.3]; apparatus n^o 2; dissolution medium: gastric simulated fluid pH 1.2 0.5% of Tween 80 without pepsin; dissolution medium volume: 900 mL; • dissolution medium temperature: 37±0.5° C.; withdrawal at: 5, 15, 30, 60 and 120 min. • Water content: Karl Fischer titration: Ph. Eur. 2.5.12 Method; following sample titration conditions are applied: sample solvent: methanol:formamide 1:1; sample weight: 50 mg; the value of water content in a sample is expressed as % w/w. • Residual cyclohexane: gas-chromatography (head space analysis). • Photostability Testing: ICH conditions “Q1B: Photostability (Option 1)”. • X-Ray Powder Diffraction (XRPD) measurements are performed on a Philips X'Pert PRO diffractometer (Bragg-Brentano geometry). • IR identity. A compatibility study is carried out on piperaquine to assess the compatibility of the drug with the coacervation process. In particular, piperaquine undergoes heating/cooling cycles mimicking thermal excursions of the process. Then, the following tests are performed both before and after thermal cycles to ascertain the stability of piperaquine: water content analysis (Karl Fisher test); effect of mechanical stress; crystalline structure by XRPD.

For `Clc1ccc2c(N3CCN(CCCN4CCN(c5ccnc6cc(Cl)ccc56)CC4)CC3)ccnc2c1` [PQP•4H2O, 4,4′-(1,3-propanediyldi-4,1-piperazinediyl)bis(7-chloroquinoline)phosphate hydrate (1:4:4)], the “Assay (%) (PQP•4H2O)” value (after thermal cycle) was 99.9%, the “Water content (%)” value (after thermal cycle) was 8.5% and the “Assay (%) (PQP•4H2O)” value (before thermal cycle) was 99.9%. The “Water content (%)” value (before thermal cycle) was 8.9% and the “Effect of heating/cooling cycle on the drug” value (thermal excursions mimicking the coacervation process) was “not affected by heating/cooling cycle”.
